# Measured values reported in patent US20130030025A1, “USE OF POTASSIUM CHANNEL BLOCKERS TO TREAT CEREBRAL PALSY” (priority 2011, published 2013).
# Where “and” joins values, the source holds several entries; their conditions need not be identical. Equal entries are not always repeated. Entries after “also recorded” stand apart in the source; their conditions may differ.
# Test system: middle cerebral artery occlusion (MCAO) in rats
# Assay: Body swing test (% right swing) after MCAO
# Type: in vivo, Sprague Dawley rats
# Description: 4-AP was evaluated for its ability to promote functional sensorimotor improvement following ischemic stroke in rats with stable motor deficits at times remote from their ischemic events. The animal model mimics the conditions in human ischemic stroke and is produced by middle cerebral artery occlusion (MCAO), which results in extensive infarction in cerebral cortex and striatum, including the cortical spinal tract (white matter). In particular, the MCAO model in Sprague Dawley rats that was utilized in the experiments presented below mimics the conditions in human ischemic stroke. In this experiment, Sprague Dawley rats were anesthetized, subjected to a surgery resulting in middle cerebral artery occlusion (MCAO), treated with and without 4-aminopyridine and behavioral assessments were performed as described below. Surgical Procedure: A small focal stroke (infarct) was made on the right side of the surface of the brain (cerebral cortex) by middle cerebral artery occlusion (MCAO). The right side of the head was shaved with electric clippers (patch of approx 3×5 cm between eye and ear). The region was carefully cleaned with septisol. Using aseptic technique, an incision was made midway between the eye and eardrum canal. The temporalis muscle was isolated, bisected, and reflected. A small window of bone was removed via drill and rongeurs (subtemporal craniectomy) to expose the middle cerebral artery (MCA). Care was taken not to remove the zygomatic arch or to transect the facial nerve that would impair the ability of the animal to chew after surgery. […] The MCA was then transected. The temporalis muscle was then repositioned, and the incision was closed subcutaneously with sutures. The skin incision was closed with surgical staples (2-3 required). Throughout the procedure, body temperature was maintained at 37.0°±1° C., using a self-regulating heating pad connected to a rectal thermometer. Dosing: Rats were treated in accordance with the dosing schedule shown in Tables 1A, 1B, and FIG. 2, with each Phase being a two week period of time. A solution of 4-AP was used in this experiment. Dosing was started at 4 weeks after ischemic event. Treatment groups: Dosing was started 4 weeks after pMCAO surgery. During these 4 weeks, weekly behavioral assessments, as defined below, were performed. Two dose levels of 4-AP plus vehicle control were assessed, with treatment starting at 4 weeks after ischemic event. All dosing was via gastric gavage, volume not to exceed 2 mL/kg. Animals were given the first dose and behavioral assessments were performed starting 60 minutes after dosing. Animals then received the second dose that day at the appropriate time and b.i.d (preferably every 12 hours) thereafter for 2 more days (3 total days of dosing, 5 total doses). One hour after the 5th dose, animals were subjected to behavioral assessments as defined below. Following the final behavioral assessment, drug was withdrawn for 10 or 11 days, behavior was re-assessed, and then animals were re-challenged with a cross-over treatment (Phase II of Table 1B) as described in Tables 1A, 1B, followed by the same behavioral testing and dosing regimen. This cross-over was repeated one more time as well (Phase III of Table 1B) (see FIG. 2). Behavioral test details: Behavioral evaluations were done by investigators blinded to treatment assignment. As described above, behavioral assessments were timed exactly with dosing times. Animals were given the first dose, behavioral assessments were performed starting 60 minutes later, and blood was collected 90 minutes after dosing. Animals then received the second dose that day at the appropriate time and b.i.d (preferably every 12 hours) thereafter for 2 more days (3 total days of dosing, 5 total doses). One hour after the 5th dose, animals were subjected to behavioral testing. […]
smiles,measurement,setting,value
"Nc1ccncc1 [4-AP, 4-aminopyridine]",Body Swing Test (% right Swing),"Group I, D30, individual animals",33.33% (3×) and 53.33% and 40.00% (2×) and 30.00% and 36.67% (5×) and 43.33% and 26.67% and 46.67%
same,"Body Swing Test (% right Swing), Mean","Group I, D30, mean of N 15",37.56%
same,Body Swing Test (% right Swing),"Group I, D32, individual animals",43.33% (2×) and 50.00% (3×) and 53.33% (3×) and 26.67% and 33.33% (3×) and 40.00% (2×) and 30.00%
same,"Body Swing Test (% right Swing), Mean","Group I, D32, mean of N 15",42.22%
same,Body Swing Test (% right Swing),"Group I, D44, low dose phase (inferred), individual animals",33.33% (3×) and 56.67% and 43.33% (3×) and 26.67% (2×) and 50.00% and 40.00% (2×) and 46.67% and 30.00% (2×)
same,"Body Swing Test (% right Swing), Mean","Group I, D44, low dose phase (inferred), mean of N 15",38.44%
same,Body Swing Test (% right Swing),"Group I, D46, individual animals",36.67% (3×) and 43.33% (4×) and 33.33% (3×) and 30.00% and 53.33% and 20.00% (2×) and 40.00%
same,"Body Swing Test (% right Swing), Mean","Group I, D46, mean of N 15",36.44%
same,Body Swing Test (% right Swing),"Group II, D30, individual animals",20.00% and 40.00% and 16.67% and 30.00% and 36.67% and 33.33% (2×) and 23.33% and 53.33% and 26.67%
same,"Body Swing Test (% right Swing), Mean","Group II, D30, mean of N 15",32.89%
same,Body Swing Test (% right Swing),"Group II, D32, individual animals",33.33% (5×) and 40.00% and 43.33% (2×) and 30.00% and 46.67%
same,"Body Swing Test (% right Swing), Mean","Group II, D32, mean of N 15",37.78%
same,Body Swing Test (% right Swing),"Group II, D58, individual animals",46.67% (3×) and 33.33% (3×) and 26.67% and 40.00% and 43.33% and 50.00%
same,"Body Swing Test (% right Swing), Mean","Group II, D58, mean of N 15",40.67%
same,Body Swing Test (% right Swing),"Group II, D60, individual animals",43.33% and 40.00% (2×) and 33.33% (2×) and 46.67% (2×) and 36.67% and 50.00% (2×)
same,"Body Swing Test (% right Swing), Mean","Group II, D60, mean of N 15",42.67%
same,"Body Swing Test (% right Swing), Mean","Group III, D44, high dose phase (inferred), mean of N 15",39.56%
same,"Body Swing Test (% right Swing), Mean","Group III, D46, high dose phase (inferred), mean of N 15",40.44%
same,"Body Swing Test (% right Swing), Mean","Group III, D58, low dose phase (inferred), mean of N 15",34.89%
same,"Body Swing Test (% right Swing), Mean","Group III, D60, low dose phase (inferred), mean of N 15",35.11%
same,effect on global body control (body swing test),"low or high dose, rats after MCAO, reversible and dose-dependent",effective to improve the percentage of rightward over total swings; also recorded: significant improvement
